This is an account of results in US5198451A, “Heterocyclic carboxylic acids” (Novo Nordisk A/S, priority 1989, dated 1993).

Counter-ions that a name gives are not always drawn.

In the first data set the test system is [^3 H]-GABA uptake. Briefly: Inhibition of [^3 H]-GABA uptake in vitro (Male Wistar rat cortical tissue homogenate). Format: biochemical. The note with it: tris HCl buffer pH 7.5, 60 min at 30° C. The procedure:
Values for in vitro inhibition of [^3 H]-GABA uptake for these compounds were assessed essentially by the method of Fjalland (Acta Pharmacol.Toxicol. 42 (1978) 73-76). Male Wistar rat cortical tissue was gently homogenized by hand using a glass/PTFE homogenizer in 10 volumes of 0.32 M sucrose. Incubation was performed in a 40 mM tris HCl buffer (pH 7.5 at 30° C.) containing […], […], 4 mM MgSO4, 2.3 mM CaCl2 and 10 mM glucose, for 60 min. at 30° C.) Values for inhibition of GABA uptake for some representative compounds are recorded in Table I.
As a reminder, the IC50 is the concentration needed to halve the response being measured. Take `O=C(O)[C@@H]1CCCN(CCOCCN(c2ccccc2)c2ccccc2)C1` [Example 2, (R)-N-(2-(2-(Diphenylamino)ethoxy)ethyl)-3-piperidinecarboxylic acid hydrochloride]: the 50% inhibitory concentration (IC50) was found to be 108 nM.

`O=C(O)[C@@H]1CCCN(CCCCCCN(c2ccccc2)c2ccccc2)C1` [Example 4, (R)-N-(6-(Diphenylamino)-1-hexyl)-3-piperidinecarboxylic acid hydrochloride] showed a half-inhibitory concentration (IC50) of 670 nM.

The compound `O=C(O)[C@@H]1CCCN(CCCCCCCN(c2ccccc2)c2ccccc2)C1` [Example 8, (R)-N-(7-(Diphenylamino)-1-heptyl)-3-piperidinecarboxylic acid hydrochloride] displayed a 50% inhibitory concentration (IC50) of 222 nM.

The compound `O=C(O)[C@@H]1CCCN(CCOCCC(c2ccccc2)c2ccccc2)C1` [Example 14, (R)-N-(2-(3,3-Diphenyl-1-propyloxy)ethyl)-3-piperidinecarboxylic acid hydrochloride] displayed an IC50 of 51 nM.

With `O=C(O)C1=CCCN(CCOCCC(c2ccccc2)c2ccccc2)C1` [Example 16, N-(2-(3,3-Diphenyl-1-propyloxy)ethyl)-1,2,5,6-tetrahydro-3-pyridinecarboxylic acid hydrochloride], the half-maximal inhibitory concentration (IC50) was determined as 49 nM.

As for `O=C(O)[C@@H]1CCCN(CCOCCC(c2ccccc2)c2cccc(C(F)(F)F)c2)C1` (stereo partly drawn) [Example 18, (R)-N-(2-(3-Phenyl-3-(3-(trifluoromethyl)phenyl)-1-propyloxy)ethyl)-3-piperidinecarboxylic acid hydrochloride], the midpoint of inhibition, the IC50, lay at 43 nM.

The test system of another data set is GABA uptake.
Assay: not given
The note with it: Yunger, L. M. et al., J. Pharm. Exp. Therap. 228 (1984) 109; cited from earlier work.
For the compound `O=C(O)C1CCCN(CCC=C(c2ccccc2)c2ccccc2)C1` (stereo not drawn) [SK&F 89976A, N-(4,4-diphenyl-3-buten-1-yl)nipecotic acid], the “inhibition of GABA uptake, oral activity” value is “orally active inhibitors of GABA uptake”.

As to `O=C(O)C1=CCCN(CCC=C(c2ccccc2)c2ccccc2)C1` [SK&F 100330A, N-(4,4-diphenyl-3-buten-1-yl)guvacine], the “inhibition of GABA uptake, oral activity” value was “orally active inhibitors of GABA uptake”.

Regarding `O=C(O)CC1CCN(CCC=C(c2ccccc2)c2ccccc2)C1` (stereo not drawn) [SK&F 100561, N-(4,4-diphenyl-3-buten-1-yl)homo-β-proline], the “inhibition of GABA uptake, oral activity” value is reported as “orally active inhibitors of GABA uptake”.

For the compound `O=C(O)C1CCCN(CCC=C(c2ccccc2)c2cccs2)C1` (stereo not drawn) [SK&F 100604J, N-(4-phenyl-4-(2-thienyl)-3-buten-1-yl)nipecotic acid], the “inhibition of GABA uptake, oral activity” value is reported as “orally active inhibitors of GABA uptake”.

Staying with this data set, now noted: background art; cited from earlier work.
On to `O=C(O)C1CCCNC1` (stereo not drawn) [nipecotic acid, piperidine-3-carboxylic acid], for which the “inhibitor of GABA uptake from the synaptic cleft into presynaptic nerve terminals and glial cells” value is “well-known and potent inhibitor of GABA uptake”.

System in the next data set: not given
Assay: not given
The note with it: background art; cited from earlier work.
Regarding `O=C(O)C1CCCNC1` (stereo not drawn) [nipecotic acid, piperidine-3-carboxylic acid], the “ability to cross the blood-brain barrier” value is listed as “unable to cross the blood-brain barrier”.
